In patent publication US20080063628A1, “METHODS TO PROMOTE CELL DIFFERENTIATION” (priority 2006, published 2008):

How the values were obtained:
[1] = system: amniotic fluid-derived cells; assay: Chronic trichostatin A treatment, gene expression by RT-PCR (Example 4); format: cell-based, human
Protocol: Amniotic fluid derived cells were obtained according to the methods described in Example 14. Cells were seeded into a 24-well tissue culture plate at a density of 5000/cm^2 and cultured in AMNIOMAX (Invitrogen) under standard cell culture conditions until confluent. After the cells reached confluency, sample wells were treated with either 500 nM or 1.0 μM trichostatin A diluted in DMSO and medium; control wells were treated with an equivalent concentration of DMSO. At 24 hour intervals over the three day incubation period, cultures underwent a complete medium change, and a fresh dilution of trichostatin A or DMSO was added as appropriate.
RNA samples were obtained from the treated cultures at 24 hour intervals after the initial addition of trichostatin A or DMSO. The culture medium was removed, cells were washed with PBS, and RLT lysis buffer with P-mercaptoethanol (Qiagen) was added. RNA was purified using the RNeasy Mini Kit (Qiagen); RNA quantity and quality was determined using a spectrophotometer. cDNA was made using the iScript cDNA synthesis kit (BioRad).
Expression levels of Sox17, HNF-3 beta, Pdx-1, insulin, and glucagon were determined by RT-PCR. Samples of 20 ng cDNA were used in each reaction, performed on an Applied Biosystems 7500 according to the methods described in Example 15. Data were analyzed using the accompanying software. Human pancreas cDNA was included as a control. Results were normalized against GAPDH expression levels. Basal expression of insulin and Sox-17 genes was detectable in untreated amniotic fluid-derived cells. However, expression of glucagon and Pdx-1 genes was not detectable in untreated cells by RT-PCR up to cycle 40. HNF-3 beta was not detected in untreated cells at 24-hours in culture but was weakly expressed at 48 and 72 hours culture time.
Real-time PCR amplifcation and quantitative analysis. Unless otherwise stated, all reagents were purchased from Applied Biosystems. Real-time PCR reactions were performed using the ABI PRISM™ 7500 Sequence Detection System. TAQMAN™ FAST UNIVERSAL PCR MASTER MIX™ (ABI, CA) was used with 20 ng of reverse transcribed RNA in a total reaction volume of 20 μl. Each cDNA sample was run in duplicate to allow correction of pipetting errors. Primers and FAM-labeled TAQMAN™ probes were used at concentrations of 200 nM. The level of expression for each target gene was normalized using the pre-developed Applied Biosystem's human glyceraldehyde-3-phosphate dehydrogenase (GAPDH) endogenous control kit. Primers and probes were designed using either ABI PRISM PRIMER EXPRESS™ software or a pre-developed ABI gene analysis kit. For each gene, either one of the primers or the probe were designed to be exon-boundary spanning. This eliminated the possibility of the primers/probe binding to any genomic DNA present. The primer and probe sets are listed as follows: Pdx-1 (Hs00426216), Insulin (Hs00355773), glucagon (Hs00174967), and FoxA2 (HNF 3-beta) (Hs00232764). The remaining primers were designed using the PRIMERS program (ABI, CA). After an initial 95° C. incubation for 20 sec, samples were cycled 40 times in two stages: a denaturation step at 95° C. for 3 sec, followed by an annealing/extension step at 60° C. for 30 sec.
For each primer/probe set, a cycle time value was determined as the cycle number at which the fluorescence intensity of the PCR reaction reached a specific value in the middle of the exponential region of amplification. An increase in expression of a gene corresponded to a decrease in the number of cycles required for the fluorescence intensity to reach this value.

[2] = system: PHA treated PBMCs containing activated T-lymphocytes; assay: Trichostatin A treatment of PBMCs, gene expression by RT-PCR (Example 20); format: cell-based, human; conditions: 5 μM
Source text: Human peripheral blood mononuclear cells (PBMCs) were isolated from whole blood using Histopaque (Sigma) gradients and standard density centrifugation. PBMCs are a heterogeneous mixture of lymphoid cells including quiescent T-lymphocytes. Cells were washed thoroughly, counted, and resuspended at 1-2×10^6 cells per ml in culture medium containing RPMI-1640 and 10% FCS. Phytohemagglutinin (PHA; Sigma) is a mitogenic lectin that specifically induces T-lymphocyte activation and proliferation. PHA was added to the cell suspension at a final concentration of 10 μg/ml, and PBMCs were cultured for 3 days at 37° C. with 5% CO2. […] At the end of culture, PBMCs were pooled to harvest, washed thoroughly, and resuspended in fresh culture medium with 5 μM trichostatin A diluted in DMSO. A control culture of PHA-treated PBMCs received an equivalent dilution of DMSO alone. Cells were returned to culture for an additional 24 or 48 hours. Alternatively, resting PBMCs were isolated in a similar manner and cultured for 24 or 48 hours total incubation time with either 5 μM trichostatin A or DMSO alone. At the conclusion of culture, cells were harvested and washed with PBS prior to preparation of RNA in RLT lysis buffer with β-mercaptoethanol (Qiagen). RNA was purified using the RNeasy Mini Kit (Qiagen); RNA quantity and quality were determined using a spectrophotometer. CDNA was made using the iScript CDNA synthesis kit (BioRad). Samples of 20 ng CDNA were used in each RT-PCR reaction, performed on the Applied Biosystems 7500. Results were normalized against GAPDH expression levels with data analysis performed using the accompanying software.

[3] = 24 hrs, after 3 days PHA 10 μg/ml
[4] = 48 hours, after 3 days PHA 10 μg/ml

CC(/C=C/C(=O)NO)=C\[C@@H](C)C(=O)c1ccc(N(C)C)cc1 [trichostatin A]
HNF-3 beta gene expression ([1]; 500 nM renewed daily, 24 hours): +++ (detectable at less than 35 cycles by RT-PCR with std error less than 0.9)
Insulin gene expression ([1]; 500 nM renewed daily, 24 hours): nd (not detectable at >40 cycles by RT-PCR)
PDX-1 gene expression ([1]; 500 nM renewed daily, 24 hours): +++ (detectable at less than 35 cycles by RT-PCR with std error less than 0.9)
Sox17 gene expression ([1]; 500 nM renewed daily, 24 hours): +++ (detectable at less than 35 cycles by RT-PCR with std error less than 0.9)
glucagon gene expression ([1]; 500 nM renewed daily, 24 hours): + (detectable between 35 and 40 cycles by RT-PCR)
HNF-3b gene expression ([1]; 500 nM renewed daily, 48 hours): +++ (detectable at less than 35 cycles by RT-PCR with std error less than 0.9)
Insulin gene expression ([1]; 500 nM renewed daily, 48 hours): nd (not detectable at >40 cycles by RT-PCR)
PDX-1 gene expression ([1]; 500 nM renewed daily, 48 hours): + (detectable between 35 and 40 cycles by RT-PCR)
Sox17 gene expression ([1]; 500 nM renewed daily, 48 hours): +++ (detectable at less than 35 cycles by RT-PCR with std error less than 0.9)
glucagon gene expression ([1]; 500 nM renewed daily, 48 hours): + (detectable between 35 and 40 cycles by RT-PCR)
HNF-3b gene expression ([1]; 500 nM renewed daily, 72 hours): +++ (detectable at less than 35 cycles by RT-PCR with std error less than 0.9)
Insulin gene expression ([1]; 500 nM renewed daily, 72 hours): nd (not detectable at >40 cycles by RT-PCR)
PDX-1 gene expression ([1]; 500 nM renewed daily, 72 hours): +++ (detectable at less than 35 cycles by RT-PCR with std error less than 0.9)
Sox17 gene expression ([1]; 500 nM renewed daily, 72 hours): +++ (detectable at less than 35 cycles by RT-PCR with std error less than 0.9)
glucagon gene expression ([1]; 500 nM renewed daily, 72 hours): + (detectable between 35 and 40 cycles by RT-PCR)
HNF-3 beta gene expression ([1]; 1 μM renewed daily, 24 hours): +++ (detectable at less than 35 cycles by RT-PCR with std error less than 0.9)
Insulin gene expression ([1]; 1 μM renewed daily, 24 hours): nd (not detectable at >40 cycles by RT-PCR)
PDX-1 gene expression ([1]; 1 μM renewed daily, 24 hours): +++ (detectable at less than 35 cycles by RT-PCR with std error less than 0.9)
Sox17 gene expression ([1]; 1 μM renewed daily, 24 hours): +++ (detectable at less than 35 cycles by RT-PCR with std error less than 0.9)
glucagon gene expression ([1]; 1 μM renewed daily, 24 hours): +++ (detectable at less than 35 cycles by RT-PCR with std error less than 0.9)
HNF-3b gene expression ([1]; 1 μM renewed daily, 48 hours): +++ (detectable at less than 35 cycles by RT-PCR with std error less than 0.9)
Insulin gene expression ([1]; 1 μM renewed daily, 48 hours): nd (not detectable at >40 cycles by RT-PCR)
PDX-1 gene expression ([1]; 1 μM renewed daily, 48 hours): +++ (detectable at less than 35 cycles by RT-PCR with std error less than 0.9)
Sox17 gene expression ([1]; 1 μM renewed daily, 48 hours): +++ (detectable at less than 35 cycles by RT-PCR with std error less than 0.9)
glucagon gene expression ([1]; 1 μM renewed daily, 48 hours): ++ (detectable at less than 35 cycles by RT-PCR with std error greater than 0.9)
HNF-3b gene expression ([1]; 1 μM renewed daily, 72 hours): +++ (detectable at less than 35 cycles by RT-PCR with std error less than 0.9)
Insulin gene expression ([1]; 1 μM renewed daily, 72 hours): nd (not detectable at >40 cycles by RT-PCR)
PDX-1 gene expression ([1]; 1 μM renewed daily, 72 hours): +++ (detectable at less than 35 cycles by RT-PCR with std error less than 0.9)
Sox17 gene expression ([1]; 1 μM renewed daily, 72 hours): +++ (detectable at less than 35 cycles by RT-PCR with std error less than 0.9)
glucagon gene expression ([1]; 1 μM renewed daily, 72 hours): +++ (detectable at less than 35 cycles by RT-PCR with std error less than 0.9)
HNF-3 beta expression ([2]; 24 or 48 hours): negative
Sox17 expression ([2]; 24 or 48 hours): negative
glucagon expression ([2]; 24 or 48 hours): negative
insulin expression ([2]; 24 or 48 hours): negative
somatostatin expression ([2]; 24 or 48 hours): negative
GAPDH gene expression [2, 3]: +++ (detectable at less than 35 cycles by RT-PCR with SE less than 0.9)
GATA4 gene expression [2, 3]: +++ (detectable at less than 35 cycles by RT-PCR with SE less than 0.9)
Gata1 gene expression [2, 3]: nd (not detectable at >40 cycles by RT-PCR)
Pdx-1 gene expression [2, 3]: + (detectable at greater than 35–40 cycles by RT-PCR)
GATA4 gene expression [2, 4]: +++ (detectable at less than 35 cycles by RT-PCR with SE less than 0.9)
Gata1 gene expression [2, 4]: nd (not detectable at >40 cycles by RT-PCR)
Pdx-1 gene expression [2, 4]: + (detectable at greater than 35–40 cycles by RT-PCR)
